The test system of this data set is patients with schizophrenia. Briefly: Randomized, double-blind, placebo-controlled in-patient trial, 4-week treatment, PANSS. The data set is classed as in vivo, human. How it is done: For purposes of this example, Compound A refers to the compound of Formula I wherein X is —N(CH3)— and Y is —C(O)—; tosylate salt unless otherwise indicated. A randomized, double-blind, placebo-controlled, in-patient trial is performed. Four treatment arms, 4-week treatment duration, QAM dosing are performed as follows: 60 mg of Compound A; 120 mg of Compound A; positive control (4 mg Risperidone); and placebo. The primary outcome is measured by the change from baseline on Positive and Negative Syndrome Scale (PANSS) Total Score at Day 28. Secondary measures explore key differentiating features.
60 mg Compound A Treatment Arm receives 60 mg of Compound A once daily for 28 days. 120 mg Compound A Treatment Arm receives 60 mg Compound A on Study Day 1 followed by 120 mg Compound A once daily for 27 days. Risperidone Treatment Arm receives 2 mg risperidone on Study Day 1 followed by 4 mg risperidone once daily for 27 days. Placebo Treatment Arm receives placebo once daily for 28 days. All doses are administered in the morning with breakfast.
Key inclusion criteria: Clinical diagnosis of schizophrenia according to DSM-IV-TR is confirmed by modified SCID-CT. Screening Brief Psychiatric […] Scale (BPRS) score of 40 or greater (18-items scored 1-7 each). Minimum score of 4 or higher on at least two of the following positive items: suspiciousness, conceptual disorganization, hallucinatory behavior, unusual thought content. Current exacerbated episode lasts no longer than 4 weeks. Sufficient history and/or independent reporter must verify that current state is an exacerbated state for the individual. Prior response to antipsychotic therapy within the last 5 years, defined as clinically significant and documented decrease in delusions and/or hallucinations during a documented exacerbated episode (and at least 3 months prior exposure to antipsychotic therapy).
The trial has a high subject completion rate (74%) compared to an average of 62% completion rate in other 4-week antipsychotic trials. 19% discontinues during the study treatment period (during Day 1-28). 7% completes study treatment through Day 28, but are lost to follow up.

The mark [1] stands for this setting: 60 mg, sub-group of patients with depression at baseline.

The structures appear in SMILES notation. “Also recorded” adds a separate entry of the source.

Take `CN1CCN2c3c(cccc31)[C@@H]1CN(CCCC(=O)c3ccc(F)cc3)CC[C@@H]12` [Compound A]: where the note is “60 mg”, the “Prosocial PANSS Factor change from baseline compared to placebo” value is listed as “significantly improve”; the “general psychopathology subscale of the PANSS” value is “statistically significantly improves”; the “items on the negative symptom and general psychopathology subscales consistent with improved social function” value is “improves certain items”; the “positive symptom subscale of the PANSS” value is “statistically significantly improves”. Also, where the note is “60 mg Compound A”, the “Effect Size (Total PANSS)” value was 0.4 and the “LS Mean Difference from Placebo (Total PANSS, Day 28)” value (from here on “LS Mean Difference from Placebo”) is reported as −5.8. Also, the “LS Mean Change from Baseline on Day 28 Total PANSS (±SE) using MMRM/ITT” value (“LS Mean Change … (±SE) using MMRM/ITT” below) (60 mg Compound A (tosylate) once daily in the morning, 28 days, N = 76) was −13.2 ± 1.7. The “PANSS total score, result in words” value (60 mg once daily in the morning, after 28 days of treatment) is “demonstrates antipsychotic efficacy; also recorded: statistically significant and clinically meaningful decrease”. In addition, the “hyperprolactinemia, EPS/akathisia, weight gain, cardiovascular safety” value (60 mg once daily, 28 days) is “does not cause hyperprolactinemia, EPS/akathisia, weight gain or cardiovascular safety issues”. For the same molecule, under setting [1], the “negative symptoms (PANSS Negative Symptom Sub-Scale)” value is given as “robustly improves” and the “total PANSS” value is “robustly improves”. Besides, for the setting “60 mg, subgroup of patients with prominent negative symptoms at baseline”, the “negative symptoms (PANSS Negative Symptom Sub-Scale)” value was “improves negative symptoms qualitatively”. Moreover, for the setting “60 mg, subgroup with CDSS score >6 at baseline”, the “depression as measured by the CDSS” value is listed as “significantly reduces depression”. Moreover, under “120 mg Compound A”, the “Effect Size (Total PANSS)” value came out at 0.1 and the “LS Mean Difference from Placebo” value is given as −0.9. Besides, the “LS Mean Change … (±SE) using MMRM/ITT” value (120 mg Compound A (60 mg on Day 1, then 120 mg once daily 27 days), N = 80) is recorded as −8.3 ± 1.7.
`Cc1nc2n(c(=O)c1CCN1CCC(c3noc4cc(F)ccc34)CC1)CCCC2` [Risperidone, reference compound]: under “4 mg Risperidone”, the “Effect Size (Total PANSS)” value came to 0.4 and the “LS Mean Difference from Placebo” value is given as −6.0. Moreover, where the note is “4 mg Risperidone (2 mg on Day 1, then 4 mg once daily 27 days), N = 75”, the “LS Mean Change … (±SE) using MMRM/ITT” value is reported as −13.4 ± 1.7. In addition, the “total PANSS and negative symptoms compared with the Compound of Formula I” value (risperidone arm, sub-group of patients with depression at baseline) is listed as “less effective”.

Source of the values: patent US10960010B2, “Pharmaceutical compositions for sustained or delayed release” (INTRA-CELLULAR THERAPIES, INC., priority 2013, dated 2021).
